Patent US11278522B2, “Use of methadone metabolites for treatment of anxiety and depression” (Georgetown University, priority 2015, dated 2022)
Several values for one entry are separate records, joined by “and”; a condition that tells them apart may be missing. Equal entries are not always repeated. Structures can show the parent of a compound that is named as a salt.

Key:
[1] = Forced swim test (mice); assay type: in vivo, mouse; settings: 6 min test
Procedure: Forced Swim Test (FST; Mice) The FST in mice was conducted as previously described [11]. Briefly, 10 min following i.p. injection of saline, EDDP or EMDP, mice were placed in Plexiglas cylinders filled with water (25° C.) for 6 min while being videotaped. The forced swim score for the entire 6 min test was assessed using the Cleversystems videotracking system (CleverSys) and confirmed with visual scoring by a trained observer. A mouse was judged to be immobile when making only those movements necessary to keep its head above water.

[2] = Forced swim test (rats); assay type: in vivo, rat; settings: three doses, 5 min test, vehicle 81 s
Procedure: Forced Swim Test (FST; Rats) The FST in rats was conducted as previously described (Porsolt et al., 2001). On day 1, rats were placed in a cylindrical chamber (20 cm in diameter, 46 cm deep) filled to a height of 38 cm with room temperature water for 15 min. After the completion of this pre-exposure test, animals were removed from the apparatus, dried with towels and placed under a heat lamp for ˜30 min. […] Animals were treated with these same doses again 20 h and 23 h after the initial dose. Twenty-four h after the pre-exposure, animals were re-introduced to the apparatus and video-recorded for 5 min. Immobility was hand-scored for each video record by a treatment blind observer (P.A.F.) using ANYmaze (Stoelting) to record the data.

[3] = Elevated plus maze (rats); assay type: in vivo, rat
Procedure: Elevated Plus Maze (Rats) Plus maze testing was performed and scored as previously described (Forcelli and Heinrichs, 2008; Forcelli et al., 2012), in a standard grey rat elevated plus maze (50 cm arms, elevated 40 cm off the ground [Stoelting Co., Wood Dale, Ill.]). Testing was conducted under 20 lux red light, 30 min after drug administration. The number of arm entries and time spent in open and closed arms were recorded using ANYmaze (Stoelting Co, Wood Dale, Ill.).

[4] = molecular target: rat α3β4 nAChR channels (Rattus norvegicus, UniProt P04757+P12392); settings: Xiao et al., 2001; cited from earlier work
[5] = Marble burying (mice); assay type: in vivo, mouse; settings: 15 min test, vehicle mean 11 of 20
Procedure: Marble Burying (Mice) After a 1 h period of acclimation to the testing room, the mice (n=6-10 per group) were injected i.p. with saline, EDDP, EMDP, or CDP at the doses indicated. Ten minutes later, the mice were placed individually in small cages (26×20×14 cm), in which twenty marbles had been equally distributed on top of mouse bedding (5-cm deep), and a wire lid was placed on top of the cage. Mice were left undisturbed for 15 min, after which time the number of buried marbles (i.e., those covered by bedding three-quarters or more) was counted.

[6] = system: opiate receptors; assay: [3H]-naloxone binding competition in rat forebrain membranes
[7] = Open field locomotor activity (rats); assay type: in vivo, rat; settings: 10 mg/kg s.c., 30 min after injection
Procedure: Locomotor Activity (Rats) Locomotor activity was measured 30 minutes after sc injection of test compound. Animals were placed in a Plexiglass enclosure (16″×16″×16″, TruScan Arena, Coulbourn Instruments, Whitehall, Pa.) with 770 lux illumination over the center of the arena. Animals were allowed to explore for 20 min, during which total distance traveled was recorded using ANYmaze software (Stoelting Co., Wood Dale, Ill.), as previously described (Forcelli et al., 2012).

[8] = molecular target: T1, human α3β4 nAChRs (Homo sapiens, UniProt P30926+P32297); assay: 86Rb+ efflux assay, inhibition of nicotine-stimulated efflux, α3β4 nAChRs; assay type: cell-based; settings: 86Rb+ efflux stimulated by 100 μM nicotine; HEK cells YXα3β4H1; mean ± standard error
T1 construct: expressed in transfected cells
Procedure: Stable cell lines and ^86Rb^+ efflux Assay. […] These cell lines were maintained in minimum essential medium (MEM) supplemented with 10% fetal bovine serum, 100 units/mL penicillin G, […] and selective antibiotics at 37° C. with 5% CO2 in a humidified incubator. Tissue culture medium and antibiotics were obtained from Invitrogen Corporation (Carlsbad, Calif.), unless otherwise stated. Fetal bovine serum was obtained from Gemini Bio-Products (Woodland, Calif.).
In brief, cells were plated into 24-well plates coated with poly-D-lysine. […] The cells were then incubated in growth medium (0.5 mL/well) containing ^86Rb^+ (2 μCi/mL) for 4 hour at 37° C. The loading mixture was then aspirated, and the cells were washed four times with 1 mL buffer (15 mM HEPES, 140 mM NaCl, 2 mM KCl, 1 mM MgSO4, 1.8 mM CaCl2), 11 mM Glucose, pH 7.4). One mL of buffer with or without compounds to be tested was then added to each well. After incubation for 2 min, the assay buffer was collected for measurements of ^86Rb^+ released from the cells. Cells were then lysed by adding 1 mL of 100 mM NaOH to each well, and the lysate was collected for determination of the amount of ^86Rb^+ that was in the cells at the end of the efflux assay. Radioactivity of assay samples and lysates was measured by liquid scintillation counting. Total loading (cpm) was calculated as the sum of the assay sample and the lysate of each well, and the amount of ^86Rb^+ efflux was expressed as a percentage of ^86Rb^+ loaded. Stimulated ^86Rb^+ efflux was defined as the difference between efflux in the presence and absence of nicotine. […] IC50 values were determined by nonlinear least-squares regression analyses (GraphPad. San Diego, Calif.).

[9] = molecular target: T2, human α4β2 nAChRs (Homo sapiens, UniProt P17787+P43681); assay: 86Rb+ efflux assay, inhibition of nicotine-stimulated efflux, α4β2 nAChRs; assay type: cell-based; settings: 86Rb+ efflux stimulated by 100 μM nicotine; HEK cells YXα4β2H1; mean ± standard error
T2 construct: expressed in transfected cells
Procedure: Stable cell lines and ^86Rb^+ efflux Assay. The cell lines expressing human α4β2 (YXα4β2H1) and α3β4 (YXα3β4H1) nAChRs were established recently (Xiao el al., 2012). These cell lines were maintained in minimum essential medium (MEM) supplemented with 10% fetal bovine serum, 100 units/mL penicillin G, […] streptomycin and selective antibiotics at 37° C. with 5% CO2 in a humidified incubator. Tissue culture medium and antibiotics were obtained from Invitrogen Corporation (Carlsbad, Calif.), unless otherwise stated. Fetal bovine serum was obtained from Gemini Bio-Products (Woodland, Calif.).
Functional properties of compounds at nAChRs expressed in the transfected cells were measured using ^86Rb^+ efflux assays as described previously (Xiao et al., 1998, 2001). In brief, cells were plated into 24-well plates coated with poly-D-lysine. The plated cells were grown at 37° C. for 18 to 24 hour to reach 85-95% confluence. The cells were then incubated in growth medium (0.5 mL/well) containing ^86Rb^+ (2 μCi/mL) for 4 hour at 37° C. The loading mixture was then aspirated, and the cells were washed four times with 1 mL buffer (15 mM HEPES, 140 mM NaCl, 2 mM KCl, 1 mM MgSO4, 1.8 mM CaCl2), 11 mM Glucose, pH 7.4). One mL of buffer with or without compounds to be tested was then added to each well. After incubation for 2 min, the assay buffer was collected for measurements of ^86Rb^+ released from the cells. Cells were then lysed by adding 1 mL of 100 mM NaOH to each well, and the lysate was collected for determination of the amount of ^86Rb^+ that was in the cells at the end of the efflux assay. Radioactivity of assay samples and lysates was measured by liquid scintillation counting. Total loading (cpm) was calculated as the sum of the assay sample and the lysate of each well, and the amount of ^86Rb^+ efflux was expressed as a percentage of ^86Rb^+ loaded. Stimulated ^86Rb^+ efflux was defined as the difference between efflux in the presence and absence of nicotine. […] IC50 values were determined by nonlinear least-squares regression analyses (GraphPad. San Diego, Calif.).

[10] = Eyelid ptosis assessment (rats); assay type: in vivo, rat; settings: 5 mg/kg
Procedure: Ptosis was assessed as previously described (Rubin et al., 1957). Each animal was photographed while gently restrained by hand. Photographs were analyzed by a treatment blind observer (P.A.F.) and assigned a score of 0 (no ptosis, eye completely open), 1 (mild, eye partially closed), 2 (moderate, eye half closed), 3 (severe, eye […] closed), or 4 (complete, eye completely closed).

T1 sequence (P32297 32-505): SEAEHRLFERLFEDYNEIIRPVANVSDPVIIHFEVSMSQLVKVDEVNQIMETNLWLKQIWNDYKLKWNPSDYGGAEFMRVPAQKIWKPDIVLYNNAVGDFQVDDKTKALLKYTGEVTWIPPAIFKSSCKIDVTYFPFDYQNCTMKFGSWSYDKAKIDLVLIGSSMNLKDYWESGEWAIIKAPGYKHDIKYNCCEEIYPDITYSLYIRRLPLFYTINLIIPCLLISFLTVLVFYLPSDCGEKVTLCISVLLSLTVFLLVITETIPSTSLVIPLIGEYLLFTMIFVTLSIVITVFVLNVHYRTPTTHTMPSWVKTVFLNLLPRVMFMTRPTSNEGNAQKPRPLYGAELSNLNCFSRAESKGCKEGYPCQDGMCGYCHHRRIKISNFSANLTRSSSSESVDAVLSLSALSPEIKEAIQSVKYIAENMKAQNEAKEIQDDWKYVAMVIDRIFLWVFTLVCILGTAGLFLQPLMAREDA
T1 sequence (P30926 22-498): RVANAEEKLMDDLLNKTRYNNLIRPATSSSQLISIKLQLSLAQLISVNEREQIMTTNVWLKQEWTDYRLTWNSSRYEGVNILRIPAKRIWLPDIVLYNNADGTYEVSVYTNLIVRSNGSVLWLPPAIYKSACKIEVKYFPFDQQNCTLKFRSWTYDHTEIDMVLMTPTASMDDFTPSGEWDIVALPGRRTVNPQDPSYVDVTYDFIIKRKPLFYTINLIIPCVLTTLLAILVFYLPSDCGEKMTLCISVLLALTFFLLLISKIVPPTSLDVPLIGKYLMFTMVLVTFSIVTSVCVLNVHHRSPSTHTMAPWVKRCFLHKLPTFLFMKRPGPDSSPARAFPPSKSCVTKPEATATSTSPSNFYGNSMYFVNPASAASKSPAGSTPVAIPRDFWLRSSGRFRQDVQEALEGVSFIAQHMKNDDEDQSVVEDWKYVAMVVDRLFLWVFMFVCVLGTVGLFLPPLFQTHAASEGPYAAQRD
T2 sequence (P43681 29-627 limits assumed): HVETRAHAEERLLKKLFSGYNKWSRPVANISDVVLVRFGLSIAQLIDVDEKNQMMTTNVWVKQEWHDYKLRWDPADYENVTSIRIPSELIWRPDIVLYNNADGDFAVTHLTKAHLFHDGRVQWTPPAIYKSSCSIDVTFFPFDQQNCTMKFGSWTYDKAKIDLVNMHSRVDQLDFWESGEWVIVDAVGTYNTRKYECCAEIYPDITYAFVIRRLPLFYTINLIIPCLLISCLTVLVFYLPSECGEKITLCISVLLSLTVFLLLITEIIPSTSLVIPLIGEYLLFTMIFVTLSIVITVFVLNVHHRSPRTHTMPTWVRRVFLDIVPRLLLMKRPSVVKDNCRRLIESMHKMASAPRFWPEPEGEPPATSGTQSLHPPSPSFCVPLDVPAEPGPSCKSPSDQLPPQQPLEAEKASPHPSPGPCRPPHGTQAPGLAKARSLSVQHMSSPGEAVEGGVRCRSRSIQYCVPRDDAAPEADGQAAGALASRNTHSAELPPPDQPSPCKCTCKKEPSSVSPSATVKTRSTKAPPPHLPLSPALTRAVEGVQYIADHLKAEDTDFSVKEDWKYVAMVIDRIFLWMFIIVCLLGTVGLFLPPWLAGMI
T2 sequence (P17787 26-502): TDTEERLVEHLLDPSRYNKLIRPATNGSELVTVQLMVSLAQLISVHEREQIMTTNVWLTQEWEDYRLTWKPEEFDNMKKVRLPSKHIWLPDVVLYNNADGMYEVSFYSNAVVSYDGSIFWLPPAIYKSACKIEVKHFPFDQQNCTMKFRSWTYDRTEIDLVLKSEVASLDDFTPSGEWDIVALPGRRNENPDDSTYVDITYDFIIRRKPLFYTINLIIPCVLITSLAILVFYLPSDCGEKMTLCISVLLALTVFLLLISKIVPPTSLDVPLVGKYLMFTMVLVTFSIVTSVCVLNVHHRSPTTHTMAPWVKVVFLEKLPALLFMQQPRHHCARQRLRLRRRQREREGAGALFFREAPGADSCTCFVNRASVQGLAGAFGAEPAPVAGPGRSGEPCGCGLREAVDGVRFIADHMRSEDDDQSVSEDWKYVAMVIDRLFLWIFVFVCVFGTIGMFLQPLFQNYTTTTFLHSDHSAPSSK
rat α3β4 nAChR channels, sequence (P04757 26-499): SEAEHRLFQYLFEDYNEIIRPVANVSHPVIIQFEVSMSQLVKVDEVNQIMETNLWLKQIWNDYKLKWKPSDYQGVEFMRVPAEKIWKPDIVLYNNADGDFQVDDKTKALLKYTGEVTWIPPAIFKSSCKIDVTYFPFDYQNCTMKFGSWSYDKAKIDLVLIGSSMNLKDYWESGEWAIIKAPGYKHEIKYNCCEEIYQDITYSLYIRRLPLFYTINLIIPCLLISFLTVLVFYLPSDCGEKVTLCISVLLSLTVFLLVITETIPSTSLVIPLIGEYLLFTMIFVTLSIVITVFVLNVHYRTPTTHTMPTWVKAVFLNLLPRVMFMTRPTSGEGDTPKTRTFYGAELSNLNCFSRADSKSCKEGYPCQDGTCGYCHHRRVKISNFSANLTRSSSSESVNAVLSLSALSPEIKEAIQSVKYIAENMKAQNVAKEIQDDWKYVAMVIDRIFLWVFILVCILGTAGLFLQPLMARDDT
rat α3β4 nAChR channels, sequence (P12392 21-495): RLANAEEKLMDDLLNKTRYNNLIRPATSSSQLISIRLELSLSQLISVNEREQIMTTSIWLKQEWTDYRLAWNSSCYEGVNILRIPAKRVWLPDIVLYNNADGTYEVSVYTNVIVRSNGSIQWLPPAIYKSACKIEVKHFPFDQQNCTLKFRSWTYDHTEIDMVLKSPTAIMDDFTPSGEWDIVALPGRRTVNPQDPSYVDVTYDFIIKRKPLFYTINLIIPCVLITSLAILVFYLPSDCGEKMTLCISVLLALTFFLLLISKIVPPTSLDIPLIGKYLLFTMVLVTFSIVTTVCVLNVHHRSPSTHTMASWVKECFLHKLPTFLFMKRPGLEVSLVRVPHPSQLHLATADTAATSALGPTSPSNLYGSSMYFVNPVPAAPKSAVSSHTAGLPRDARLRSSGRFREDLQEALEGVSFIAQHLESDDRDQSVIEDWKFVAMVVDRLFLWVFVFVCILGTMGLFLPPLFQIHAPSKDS

Compound: CC=C1N(C)C(C)CC1(c1ccccc1)c1ccccc1 (racemic) [EDDP, 2-ethylidene-1,5-dimethyl-3,3-diphenylpyrrolidine]
- duration of immobility in forced swim test vs vehicle ([1]; 1 mg/kg i.p.): did not produce a significant effect
- duration of immobility in forced swim test vs vehicle ([1]; 5 mg/kg i.p.): did not produce a significant effect
- duration of immobility in forced swim test vs vehicle ([1]; 10 mg/kg i.p.): did not produce a significant effect
- immobile time in forced swim test vs vehicle ([2]; 10 mg/kg s.c.): without effect
- mean duration in the open arms of the elevated plus maze ([3]; 10 mg/kg s.c., 30 min after drug, vehicle 104 s): 80 s
- percentage of entries made into the open arms of the plus maze ([3]; vs vehicle): the groups did not differ
- latency to first entry in the open arms ([3]; vs vehicle (data not shown)): did not differ as a function of treatment group
- block of rat α3β4 nAChR channels [4]: potently block
- number of marbles buried vs vehicle ([5]; 5 mg/kg i.p.): buried significantly fewer marbles
- number of marbles buried vs vehicle ([5]; 10 mg/kg i.p.): did not reach statistical significance
- apparent affinity, fold lower than that of methadone ([6]; rat forebrain [3H]-naloxone binding): ~83 fold and 84 fold
- fraction of [3H]-naloxone binding sites competed for ([6]; rat forebrain membranes): nearly all of the binding sites
- Ki ([6]; rat forebrain membranes, 2 nM [3H]-naloxone, single-site model): 0.918 µM
- open field locomotor activity [7]: neither EDDP nor EMDP significantly altered

Compound: CC=C1N(C)C(C)CC1(c1ccccc1)c1ccccc1 (single isomer, unassigned; (+)) [(+)-EDDP, 2-ethylidene-1,5,dimethyl-3,3-diphenylpyrrolidine perchlorate]
- IC50 [8]: 0.9 ± 0.09 µM
- IC50 [9]: 1.8 ± 0.6 µM

Compound: CCC1=NC(C)CC1(c1ccccc1)c1ccccc1 (single isomer, unassigned; (+)) [(+)-EMDP, 2-ethyl-5-methyl-3,3-diphenyl-1-pyrroline hydrochloride]
- IC50 [8]: 7.4 ± 2.1 µM
- IC50 [9]: 24 ± 5 µM

Compound: CC=C1N(C)C(C)CC1(c1ccccc1)c1ccccc1 (single isomer, unassigned; (-)) [(−)-EDDP, 2-ethylidene-1,5,dimethyl-3,3-diphenylpyrrolidine perchlorate]
- IC50 [8]: 0.7 ± 0.06 µM
- IC50 [9]: 1.4 ± 0.2 µM

Compound: CCC1=NC(C)CC1(c1ccccc1)c1ccccc1 (single isomer, unassigned; (-)) [(−)-EMDP, 2-ethyl-5-methyl-3,3-diphenyl-1-pyrroline hydrochloride]
- IC50 [8]: 7 ± 1.2 µM
- IC50 [9]: 19 ± 4 µM

Compound: CNC1=Nc2ccc(Cl)cc2C(c2ccccc2)=[N+]([O-])C1 [CDP, chlordiazepoxide HCl, reference compound]
- number of marbles buried vs vehicle ([5]; 10 mg/kg i.p.): buried significantly fewer marbles

Compound: CNC1(C)C2CCC(C2)C1(C)C (centres unmarked) [Mecamylamine, Mecamylamine HCl]
- eyelid ptosis quantified over 3 h [10]: produced ptosis in a time-dependent manner
- onset of ptosis after injection [10]: ≤ 15 min
- ptosis observed during forced swim tests [10]: obvious ptosis
- immobile time in forced swim test vs vehicle ([2]; 5 mg/kg s.c.): reduced immobile time
- IC50 [9]: 1 ± 0.3 µM

Compound: CN[C@H]1CC[C@@H](c2ccc(Cl)c(Cl)c2)c2ccccc21 [sertraline, sertraline HCl, reference compound]
- immobile time in forced swim test vs vehicle ([2]; 20 mg/kg s.c.): significantly reduced immobile time
